US20160095837A1, “MODULATION OF MITOCHONDRIAL CALCIUM UNIPORTER ACTIVITY FOR TREATING AND PREVENTING ARRHYTHMIAS” (priority 2014, published 2016)

What was measured:
[1] = biological target: T1, mitochondrial calcium uniporter (MCU) (Homo sapiens, UniProt Q8NE86); test: Calcium green mitochondrial Ca2+ uptake assay in permeabilized HEK cells; format: cell-based; details: Ru360 10 μM or DN-MCU adenovirus (FIG. 6)
T1 construct: We measured mitochondrial Ca^2+ uptake using permeabilized HEK cells; endogenous in cells; host or cells: HEK293 cells, saponin-permeabilized
T1 sequence (Q8NE86 51-351): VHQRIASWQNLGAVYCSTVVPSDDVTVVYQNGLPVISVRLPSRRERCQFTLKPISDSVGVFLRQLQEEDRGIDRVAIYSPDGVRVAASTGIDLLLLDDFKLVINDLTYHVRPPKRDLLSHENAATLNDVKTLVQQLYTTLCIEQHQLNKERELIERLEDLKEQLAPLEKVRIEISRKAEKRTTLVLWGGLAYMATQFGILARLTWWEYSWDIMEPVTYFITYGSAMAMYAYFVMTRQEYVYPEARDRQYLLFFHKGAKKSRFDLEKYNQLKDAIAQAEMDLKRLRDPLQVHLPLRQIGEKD
T1 sequence (Q9H4I9 48-107 partner limits assumed): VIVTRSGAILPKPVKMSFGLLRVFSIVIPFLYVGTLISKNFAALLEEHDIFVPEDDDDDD
Experimental: (§1) SAN cells were placed in Tyrode's solution at 36±0.5° C. and were identified by their characteristic morphology (spindle or spider shape) and spontaneous activity. SAN cells were identified electrophysiologically by spontaneous action potentials with a slow depolarizing phase 4 and the hyperpolarization-activated current (If).^27 Spontaneous action potentials, If and ICa were recorded using the perforated (amphotericin B or β-escin in studies requiring dialysis of Ru360 and/or ATP) patch-clamp technique^28 on single SAN cells at 36±0.5° C. in Tyrode's solution. Intracellular Ca^2+ transients were recorded from single SAN cells using Fura-2 AM excited at 340 nm and 380 nm and emitted and 510 nm. Endogenous NADH from single SAN cells was measured by excitation at 350 nm and recording emitted light at 460 nm.^29 Mitochondrial Ca^2+ was measured at 535 nm from mt-pericam expressing SAN cells exited at 415 nm^20. Mitochondrial Ca^2+ entry was measured in cell membrane permeabilized cardiomyocytes isolated from DN-MCU transgenic, wild type mice and from HEK293 cells using Calcium green-5N^30.
We measured mitochondrial Ca^2+ uptake using permeabilized HEK cells as previously described^30,40. […] Fluorescence was measured using a Tecan plate reader. […] Fluorescence intensity was measured from 50,000 […]/well. […]

[2] = system: SERCA2a activity ([Ca2+]cyto decline); test: Cytoplasmic Ca2+ transient decay (Fura-2 AM) in SAN cells; format: cell-based, mouse; details: Ru360 dialysis
Experimental: as §1
Cytosolic Ca^2+ levels were recorded from Fura-2-loaded cells, excited at wavelengths of 340 and 380 nm, and imaged with a 510 nm long-pass filter. Single isolated SAN cells were loaded with 0.1 μM Fura-2 AM for 20 minutes, and then perfused for 20 minutes to de-esterfy the Fura-2 AM in normal Tyrode's solution. After placement on a recording chamber, the cells were perfused in normal Tyrode's solution at 36° C.±0.5. Spindle-shaped, spontaneously beating cells were chosen for experiments. Action potential recording was performed simultaneously.

[3] = system: CaV1 L-type Ca2+ current (ICa); test: ICa current recording in SAN cells; format: cell-based, mouse; details: Ru360 dialysis
Experimental: as §1
Spontaneous action potentials (APs) and If were recorded using the perforated (amphotericin B or β-escin) patch-clamp technique^28 on single SAN cell at 36±0.5° C. in Tyrode's solution (0.5 mM BaCl2 was added to the bath solution when recording If^32). […]

(μ)[(HCO2)(NH3)4Ru]2OCl3) [Ru360]
Mitochondrial Ca2+ entry [1]: similarly effective at preventing | Decline in [Ca2+]cyto after ISO ([2]; ISO stimulated): slowed | Decline in [Ca2+]cyto in the absence of ISO stimulation ([2]; no ISO): did not slow | ISO-induced ICa increases [3]: not impaired
